Data reported in patent US20240132484A1, “BROAD SPECTRUM ANTIVIRAL COMPOUNDS TARGETING THE SKI COMPLEX” (priority 2020, published 2024).
Where “and” joins values, the source holds several entries; their conditions need not be identical. Equal values may be shown once. Read-outs that look alike come from different tables or passages of the source.

What was measured:
SARS2 = format: cell-based, SARS-CoV-2; conditions: for Percentage Infection Relative to Appropriate DMSO Control: avg background subtraction; for Percentage Inhibition Average 1 μM / Screening data (Relative infection to DMSO controls) Average 1 μM: SARS2, 1 μM; for Screening data (Relative infection to DMSO controls) Average 1 μM / Screening data (Relative infection to DMSO controls) Average 5 μM / Screening data (Relative infection to DMSO controls) Average 10 μM / Screening data (Relative infection to DMSO controls) Average 25 μM / Screening data (Relative infection to DMSO controls) Average 50 μM / Average (relative infection to DMSO over the 5 tested concentrations): 100=DMSO control; for Percentage Inhibition Average 5 μM / Screening data (Relative infection to DMSO controls) Average 5 μM: SARS2, 5 μM; for Percentage Inhibition Average 10 μM / Screening data (Relative infection to DMSO controls) Average 10 μM: SARS2, 10 μM; for Percentage Inhibition Average 25 μM / Screening data (Relative infection to DMSO controls) Average 25 μM: SARS2, 25 μM; for Percentage Inhibition Average 50 μM / Screening data (Relative infection to DMSO controls) Average 50 μM: SARS2, 50 μM; for Average (relative infection to DMSO over the 5 tested concentrations): SARS2, average over 1 to 50 uM
cells (nuclei count) = conditions: for Relative cell count to DMSO controls, Average 1 μM / Relative cell count to DMSO controls, Average 5 μM / Relative cell count to DMSO controls, Average 10 μM / Relative cell count to DMSO controls, Average 25 μM / Relative cell count to DMSO controls, Average 50 μM: toxicity data, 100=DMSO control; for Relative cell count to DMSO controls, Average (for correlation analysis): average value over the 5 tested concentrations (1 to 50 uM)
[1] = average of Exp 1-3 (SMW475, SMW477, SMW478), n 9, 1 uM
[2] = average of Exp 1-3 (SMW475, SMW477, SMW478), n 9, 5 uM
[3] = average of Exp 1-3 (SMW475, SMW477, SMW478), n 9, 10 uM
[4] = average of Exp 1-3 (SMW475, SMW477, SMW478), n 9, 25 uM
[5] = average of Exp 1-3 (SMW475, SMW477, SMW478), n 9, 50 uM

## CCOc1cccc(CNCCc2ccccc2F)c1OCC(O)CN1CCN(C)CC1 (centres unmarked) [SILCS3]
SARS2; 1 uM, Exp 1 (SMW454), single wells
  Percentage Infection Relative to Appropriate DMSO Control: 102.18% and 96.08% and 79.31%
SARS2; 5 uM, Exp 1 (SMW454), single wells
  Percentage Infection Relative to Appropriate DMSO Control: 110.38% and 99.87% and 94.40%
SARS2; 10 uM, Exp 1 (SMW454), single wells
  Percentage Infection Relative to Appropriate DMSO Control: 98.93% and 87.99% and 82.55%
SARS2; 25 uM, Exp 1 (SMW454), single wells
  Percentage Infection Relative to Appropriate DMSO Control: 73.36% and 69.10% and 58.07%
SARS2; 50 uM, Exp 1 (SMW454), single wells
  Percentage Infection Relative to Appropriate DMSO Control: 38.76% and 39.55% and 35.10%
SARS2; Average of Exp 1-3, n 9, 1 uM
  Infection Data, Average, Mean: 77.07%
SARS2; Average of Exp 1-3, n 9, 5 uM
  Infection Data, Average, Mean: 48.45%
SARS2; Average of Exp 1-3, n 9, 10 uM
  Infection Data, Average, Mean: 46.02%
SARS2; Average of Exp 1-3, n 9, 25 uM
  Infection Data, Average, Mean: 22.24%
SARS2; Average of Exp 1-3, n 9, 50 uM
  Infection Data, Average, Mean: 12.53%
SARS2; Exp 2 (SMW466), 1 uM
  Percentage Infection Relative to Appropriate DMSO Control: 97.83% and 85.97% and 85.21%
SARS2; Exp 2 (SMW466), 5 uM
  Percentage Infection Relative to Appropriate DMSO Control: 25.85% and 18.37% and 25.06%
SARS2; Exp 2 (SMW466), 10 uM
  Percentage Infection Relative to Appropriate DMSO Control: 15.71% and 12.38% and 8.39%
SARS2; Exp 2 (SMW466), 25 uM
  Percentage Infection Relative to Appropriate DMSO Control: −2.25% and −2.53% and 0.99%
SARS2; Exp 2 (SMW466), 50 uM
  Percentage Infection Relative to Appropriate DMSO Control: −2.52% and −3.00% and 0.03%
SARS2; Exp 3 (SMW480), 1 uM
  Percentage Infection Relative to Appropriate DMSO Control: 55.68% and 51.29% and 40.12%
SARS2; Exp 3 (SMW480), 25 uM
  Percentage Infection Relative to Appropriate DMSO Control: 6.43% and −0.12% and −2.91%
SARS2
  Percentage Inhibition Average 1 μM: 22.93%
  Screening data (Relative infection to DMSO controls) Average 1 μM: 77.07
  Percentage Inhibition Average 5 μM: 51.55%
  Screening data (Relative infection to DMSO controls) Average 5 μM: 48.45
  Percentage Inhibition Average 10 μM: 53.98%
  Screening data (Relative infection to DMSO controls) Average 10 μM: 46.02
  Percentage Inhibition Average 25 μM: 77.76%
  Screening data (Relative infection to DMSO controls) Average 25 μM: 22.24
  Percentage Inhibition Average 50 μM: 87.47%
  Screening data (Relative infection to DMSO controls) Average 50 μM: 12.53
  Average (relative infection to DMSO over the 5 tested concentrations): 41.26
Cells (nuclei count)
  Relative cell count to DMSO controls, Average 1 μM: 114.7
  Relative cell count to DMSO controls, Average 5 μM: 125.56
  Relative cell count to DMSO controls, Average 10 μM: 124.47
  Relative cell count to DMSO controls, Average 25 μM: 117.43
  Relative cell count to DMSO controls, Average 50 μM: 86.97
  Relative cell count to DMSO controls, Average (for correlation analysis): 113.83
Cells (nuclei count); Average of Exp 1-3, n 9, 1 uM
  Toxicity Data, Average, Mean: 114.70%
Cells (nuclei count); Average of Exp 1-3, n 9, 5 uM
  Toxicity Data, Average, Mean: 125.56%
Cells (nuclei count); Average of Exp 1-3, n 9, 10 uM
  Toxicity Data, Average, Mean: 124.47%
Cells (nuclei count); Average of Exp 1-3, n 9, 25 uM
  Toxicity Data, Average, Mean: 117.43%
Cells (nuclei count); Average of Exp 1-3, n 9, 50 uM
  Toxicity Data, Average, Mean: 86.97%
Cells (nuclei count); Exp 1 (SMW454), 1 uM
  Toxicity Data, nuclei count relative to DMSO controls: 108.7% and 108.1% and 97.2%
Cells (nuclei count); Exp 1 (SMW454), 5 uM
  Toxicity Data, nuclei count relative to DMSO controls: 105.8% and 104.1% and 93.5%
Cells (nuclei count); Exp 1 (SMW454), 10 uM
  Toxicity Data, nuclei count relative to DMSO controls: 112.5% and 109.3% and 98.7%
Cells (nuclei count); Exp 1 (SMW454), 25 uM
  Toxicity Data, nuclei count relative to DMSO controls: 102.5% and 101.9% and 95.9%
Cells (nuclei count); Exp 1 (SMW454), 50 uM
  Toxicity Data, nuclei count relative to DMSO controls: 93.7% and 93.9% and 95.7%
Cells (nuclei count); Exp 2 (SMW466), 1 uM
  Toxicity Data, nuclei count relative to DMSO controls: 110.2% and 122.4% and 99.6%
Cells (nuclei count); Exp 2 (SMW466), 5 uM
  Toxicity Data, nuclei count relative to DMSO controls: 143.6% and 141.9% and 102.7%
Cells (nuclei count); Exp 2 (SMW466), 10 uM
  Toxicity Data, nuclei count relative to DMSO controls: 139.8% and 146.3% and 105.1%
Cells (nuclei count); Exp 2 (SMW466), 25 uM
  Toxicity Data, nuclei count relative to DMSO controls: 131.0% and 122.3% and 75.1%
Cells (nuclei count); Exp 2 (SMW466), 50 uM
  Toxicity Data, nuclei count relative to DMSO controls: 81.8% and 76.6% and 53.5%
Cells (nuclei count); Exp 3 (SMW480), 1 uM
  Toxicity Data, nuclei count relative to DMSO controls: 131.1% and 136.5% and 118.6%
Cells (nuclei count); Exp 3 (SMW480), 5 uM
  Toxicity Data, nuclei count relative to DMSO controls: 154.5% and 147.8% and 136.1%
Cells (nuclei count); Exp 3 (SMW480), 10 uM
  Toxicity Data, nuclei count relative to DMSO controls: 156.3% and 129.5% and 122.8%
Cells (nuclei count); Exp 3 (SMW480), 25 uM
  Toxicity Data, nuclei count relative to DMSO controls: 157.9% and 155.8% and 114.5%
Cells (nuclei count); Exp 3 (SMW480), 50 uM
  Toxicity Data, nuclei count relative to DMSO controls: 117.7% and 89.8% and 80.0%

## COC(=O)c1csc(CN(CCN(C)C)Cc2ccccc2)c1 [SILCS30]
SARS2
  SARS2 antiviral activity: decrease in activity
  Percentage Inhibition Average 1 μM: −0.21%
  Screening data (Relative infection to DMSO controls) Average 1 μM: 100.21
  Percentage Inhibition Average 5 μM: 15.19%
  Screening data (Relative infection to DMSO controls) Average 5 μM: 84.81
  Percentage Inhibition Average 10 μM: 1.46%
  Screening data (Relative infection to DMSO controls) Average 10 μM: 98.54
  Percentage Inhibition Average 25 μM: 32.80%
  Screening data (Relative infection to DMSO controls) Average 25 μM: 67.20
  Percentage Inhibition Average 50 μM: 75.16%
  Screening data (Relative infection to DMSO controls) Average 50 μM: 24.84
  Average (relative infection to DMSO over the 5 tested concentrations): 75.12
SARS2; Exp 1 (SMW475), 1 uM, single well
  Percentage Infection Relative to Appropriate DMSO Control with Avg Background Subtraction: 105.27% and 104.72% and 85.58%
SARS2; Exp 1 (SMW475), 10 uM, single well
  Percentage Infection Relative to Appropriate DMSO Control with Avg Background Subtraction: 111.40% and 92.91% and 108.37%
SARS2; Exp 1 (SMW475), 25 uM, single well
  Percentage Infection Relative to Appropriate DMSO Control with Avg Background Subtraction: 63.92% and 51.24% and 55.41%
SARS2; Exp 1 (SMW475), 50 uM, single well
  Percentage Infection Relative to Appropriate DMSO Control with Avg Background Subtraction: 32.13% and 25.36% and 23.71%
SARS2; Exp 2 (SMW477), 1 uM, single well
  Percentage Infection Relative to Appropriate DMSO Control with Avg Background Subtraction: 113.51% and 96.27% and 114.57%
SARS2; Exp 2 (SMW477), 5 uM, single well
  Percentage Infection Relative to Appropriate DMSO Control with Avg Background Subtraction: 117.23% and 99.87% and 114.31%
SARS2; Exp 2 (SMW477), 10 uM, single well
  Percentage Infection Relative to Appropriate DMSO Control with Avg Background Subtraction: 121.60% and 100.99% and 139.28%
SARS2; Exp 2 (SMW477), 25 uM, single well
  Percentage Infection Relative to Appropriate DMSO Control with Avg Background Subtraction: 71.18% and 69.34% and 78.15%
SARS2; Exp 2 (SMW477), 50 uM, single well
  Percentage Infection Relative to Appropriate DMSO Control with Avg Background Subtraction: 17.82% and 25.00% and 26.06%
SARS2; Exp 3 (SMW478), 1 uM, Greiner Celigo plates
  Percentage Infection Relative to Appropriate DMSO Control with Avg Background Subtraction: 81.75% and 100.71% and 99.49%
SARS2; Exp 3 (SMW478), 5 uM, Greiner Celigo plates
  Percentage Infection Relative to Appropriate DMSO Control with Avg Background Subtraction: 89.39% and 93.72% and 82.15%
SARS2; Exp 3 (SMW478), 10 uM, Greiner Celigo plates
  Percentage Infection Relative to Appropriate DMSO Control with Avg Background Subtraction: 73.78% and 69.60% and 68.94%
SARS2; Exp 3 (SMW478), 25 uM, Greiner Celigo plates
  Percentage Infection Relative to Appropriate DMSO Control with Avg Background Subtraction: 79.03% and 71.83% and 64.72%
SARS2; [1]
  Infection Data, Average, Mean: 100.21%
SARS2; [2]
  Infection Data, Average, Mean: 84.81%
SARS2; [3]
  Infection Data, Average, Mean: 98.54%
SARS2; [4]
  Infection Data, Average, Mean: 67.20%
SARS2; [5]
  Infection Data, Average, Mean: 24.84%
Cells (nuclei count)
  Relative cell count to DMSO controls, Average 1 μM: 108.24
  Relative cell count to DMSO controls, Average 5 μM: 110.62
  Relative cell count to DMSO controls, Average 10 μM: 102.59
  Relative cell count to DMSO controls, Average 25 μM: 104.38
  Relative cell count to DMSO controls, Average 50 μM: 86.57
  Relative cell count to DMSO controls, Average (for correlation analysis): 102.48
Cells (nuclei count); [1]
  Toxicity Data, Average, Mean: 108.24%
Cells (nuclei count); [2]
  Toxicity Data, Average, Mean: 110.62%
Cells (nuclei count); [3]
  Toxicity Data, Average, Mean: 102.59%
Cells (nuclei count); [4]
  Toxicity Data, Average, Mean: 104.38%
Cells (nuclei count); [5]
  Toxicity Data, Average, Mean: 86.57%
